Literature values in US11992479B2, “R-fadrozole for use in the treatment of aldostonerism” (priority 2018, dated 2024).
Counter-ions that a name gives are not always drawn.

Assays:
[1] = system: DOC; details: PA patients, cited from earlier work
[2] = system: plasma aldosterone; details: 0.5 and 1.0 mg twice a day, PA patients; cited from earlier work
[3] = phase I study; cited from earlier work
[4] = system: basal plasma aldosterone; details: twice daily, healthy male subjects; cited from earlier work

Compound | DOC mean level ([1]; 1.0 mg twice-daily dose) [ng/mL] | increase of DOC ([1]; twice-daily dosing) | decrease of plasma aldosterone [2] | elimination half-life [3] | time to peak concentration [3] [h] | effect on basal plasma aldosterone levels [4] | effect on serum potassium [4]
N#Cc1ccc([C@H]2CCc3cncn32)c(F)c1 [LCI699] | 9.8 | over 700% | 70-80% | approximately 4 hours | 1 | – | –
N#Cc1ccc(C2CCCc3cncn32)cc1 (racemic) [Fadrozole hydrochloride] | – | – | – | – | – | only modestly affect basal plasma aldosterone levels | without significantly elevating serum potassium
